In patent US8101621B2, “Aminopyridine derivatives having aurora a selective inhibitory action” (MSD K.K., priority 2006, dated 2012):
Values joined by “and” are separate entries in the source; they are usually repeats but may differ in a detail not shown here. Equal entries are not always repeated. Structures can show the parent of a compound that is named as a salt.

Assays:
[1] = system: Human cervical cancer cells (HeLa S3); assay: Effect by combined use with paclitaxel in cells, WST-8 method; assay type: cell-based; details: three days, DMSO = 0%; for inhibition at 1 µM: HeLa S3, compound 1.0 μM alone
Protocol: Fetal calf serum (FCS) was purchased from Moregate Biotech, DMEM medium from Invitrogen Corp., paclitaxel (tradename: Taxol) from Sigma-Aldrich, Inc., and WST-8 from Kishida Chemical Co., Ltd.
(§1) Human cervical cancer cells (HeLa S3) were obtained from the American Type Culture Collection (ATCC).
Cells were suspended in a DMEM medium containing 10% FCS, and the cell suspension was dispensed to two 96-well plastic plates at a rate of 750 cells/100 microliters per well. The plates were incubated overnight in 5% CO2-95% air at 37° C. A drug was subjected to graded dilution in dimethylsulfoxide and further diluted with […] a DMEM medium containing 10% FCS and also containing 2 nM paclitaxel. Then, the dilutions were each dispensed to one of the plates on which cells had been disseminated, at a rate of 100 microliters per well. The final concentration of paclitaxel at this stage was 1 nM. Also, the concentrations in the case of sole administration of the compound according to the invention were 0.03, 0.1, 0.3, 1 and 3 μM. The plates were incubated for further three days in 5% CO2-95% air at 37° C. Cell growth after incubation was measured by the WST-8 method (H. Tominaga, et al., Anal. Commun., 36, 47-50 (1999)). Here, the WST-8 method refers to a method in which 20 microliters of a WST-8 reagent solution is added to each well, incubation is conducted at 37° C. for 45 minutes, the plate is stirred, and the amount of formazan produced is measured by a colorimetric method to determine the inhibitory rate of the drug. The growth inhibitory effects of paclitaxel and of the compound according to the invention were determined, with the value obtained in sole treatment of DMSO being defined as 0%.

Aurora A = molecular target: T1, Aurora A (Homo sapiens, UniProt O14965); assay: Aurora A inhibitory action (Kemptide substrate, [γ-33P]ATP, 20 μM ATP); assay type: biochemical; details: 30° C., 20 minutes
T1 construct: histidine tag (N); made in house; host or cells: Escherichia coli BL21-CodonPlus (DE3)-RIL
T1 sequence (O14965 1-403): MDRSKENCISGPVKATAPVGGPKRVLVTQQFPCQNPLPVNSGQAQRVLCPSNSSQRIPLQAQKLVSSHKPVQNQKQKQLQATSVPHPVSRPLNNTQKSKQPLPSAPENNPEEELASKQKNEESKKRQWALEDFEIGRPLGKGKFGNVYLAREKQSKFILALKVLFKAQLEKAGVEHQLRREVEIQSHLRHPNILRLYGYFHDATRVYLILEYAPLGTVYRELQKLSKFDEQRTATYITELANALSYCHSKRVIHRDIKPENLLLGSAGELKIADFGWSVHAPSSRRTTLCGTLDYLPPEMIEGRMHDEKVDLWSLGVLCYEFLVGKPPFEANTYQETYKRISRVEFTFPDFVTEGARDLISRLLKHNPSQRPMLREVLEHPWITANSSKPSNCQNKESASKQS
From the text: (§2) cDNA of Aurora A having histidine tag fused at the amino terminal was integrated into an expression vector, which was then highly expressed in Escherichia coli BL21-CodonPlus (DE3)-RIL cells. The Escherichia coli cells were recovered and solubilized, and then the histidine-tagged Aurora A protein was adsorbed onto a nickel chelate column and eluted from the column with imidazole. The active fraction was desalted with a desalting column to give a pure enzyme.
For measurement of the activity of Aurora A, the substrate used was Kemptide (Leu-Arg-Arg-Ala-Ser-Leu-Gly) (SEQ.ID.NO.: 1), a synthetic peptide purchased from Sigma-Aldrich, Inc. [Certificate of analysis (Upstate, Inc.)].
Reaction was conducted by a partial modification of a method by Upstate, Inc. [Kinase Profiler™ Assay Protocols]. The amount of the reaction liquid was 21.1 μL, and the composition of the reaction buffer (R2 buffer) was 50 mM Tris-hydrochloride buffer (pH 7.4)/15 mM magnesium acetate/0.2 mM ethylenediamine-N,N,N′,N′-tetraacetate (EDTA). To this, purified Aurora A, 100 μM of a substrate peptide, 20 μM of unlabeled adenosine triphosphate (ATP) and 0.5 μCi of [γ-^33P] labeled ATP (2,500 Ci/mmole or more) were added, and the mixture was reacted at 30° C. for 20 minutes. Then, 10 μL of 350 mM phosphate buffer was added to the reaction system to stop the reaction. The substrate peptide was adsorbed on a P81 paper filter 96-well plate and then washed with 130 mM phosphate buffer for several times. The radiation activity of the peptide was measured with a liquid scintillation counter. The [γ-^33P] labeled ATP was purchased from Amersham Biosciences Co., Ltd.
(§3) The compound to be tested was added to the reaction system such that a dilution series of the compound in dimethylsulfoxide was first prepared, and 1.1 μL of this solution was added. A control was provided by adding 1.1 μL of DMSO to the reaction system.

Aurora B = molecular target: T2, Aurora B (Homo sapiens, UniProt Q96GD4); assay: Aurora B inhibitory action (Kemptide substrate, [γ-33P]ATP, 100 μM ATP); assay type: biochemical; details: 30° C., 20 minutes
T2 construct: histidine tag (N); made in house; host or cells: Escherichia coli BL21-CodonPlus (DE3)-RIL
T2 sequence (Q96GD4 whole entry): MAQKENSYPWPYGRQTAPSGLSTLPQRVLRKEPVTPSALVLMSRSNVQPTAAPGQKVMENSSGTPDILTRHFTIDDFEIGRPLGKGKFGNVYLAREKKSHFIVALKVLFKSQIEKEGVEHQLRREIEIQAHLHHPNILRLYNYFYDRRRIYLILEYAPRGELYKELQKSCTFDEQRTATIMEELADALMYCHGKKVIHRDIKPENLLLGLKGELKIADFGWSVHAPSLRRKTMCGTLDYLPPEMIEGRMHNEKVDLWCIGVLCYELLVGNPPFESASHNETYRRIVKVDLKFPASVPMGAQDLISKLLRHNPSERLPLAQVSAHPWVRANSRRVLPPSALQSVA
From the text: as §2, with “of Aurora B having histidine” for “of Aurora A having histidine”
For measurement of the activity of Aurora B, the substrate used was Kemptide (Leu-Arg-Arg-Ala-Ser-Leu-Gly) (SEQ.ID.NO.: 1), a synthetic peptide purchased from Sigma-Aldrich, Inc. [Certificate of analysis (Upstate, Inc.)].
Reaction was conducted by a partial modification of the method of activity measurement for Aurora A. The amount of the reaction liquid was 21.1 μL, and the composition of the reaction buffer (R2 buffer) was 50 mM Tris-hydrochloride buffer (pH 7.4)/15 mM magnesium acetate/0.2 mM ethylenediamine-N,N,N′,N′-tetraacetate (EDTA). To this, purified Aurora B, 100 μM of a substrate peptide, 100 μM of unlabeled adenosine triphosphate (ATP) and 1 μCi of [γ-^33P] labeled ATP (2,500 Ci/mmole or more) were added, and the mixture was reacted at 30° C. for 20 minutes. Then, 10 μL of 350 mM phosphate buffer was added to the reaction system to stop the reaction. The substrate peptide was adsorbed on a P81 paper filter 96-well plate and then washed with 130 mM phosphate buffer for several times. The radiation activity of the peptide was measured with a liquid scintillation counter. The [γ-^33P] labeled ATP was purchased from Amersham Biosciences Co., Ltd.
as §3

[2] = system: Human cervical cancer cells (HeLa S3); assay: Cell growth inhibitory effect, WST-8 method; assay type: cell-based; details: 72 h, HeLa S3, three days incubation
Protocol: Fetal calf serum (FCS) was purchased from Moregate Biotech, and DMEM medium was purchased from Invitrogen Corp. WST-8 was purchased from Kishida Chemical Co., Ltd.
as §1
Cells were suspended in a DMEM medium containing 10% FCS, and the cell suspension was dispensed to a 96-well plastic plate at a rate of 750 cells/100 microliters per well. The plate was incubated overnight in 5% CO2-95% air at 37° C. A drug was subjected to graded dilution in dimethylsulfoxide and further diluted with a DMEM medium containing 10% FCS. Then, the dilution was dispensed to the plate on which cells had been disseminated, at a rate of 100 microliters per well. The plate was incubated for further three days in 5% CO2-95% air at 37° C. Cell growth after incubation was measured by the WST-8 method (H. Tominaga, et al., Anal. Commun., 36, 47-50 (1999)). Here, the WST-8 method refers to a method in which 20 microliters of a WST-8 reagent solution is added to each well, incubation is conducted at 37° C. for 45 minutes, the plate is stirred, and the amount of formazan produced is measured by a calorimetric method to determine the inhibitory rate of the drug. The concentration for 50% growth inhibition (EC50, μM) of the compound was determined.

[3] = HeLa S3, compound 1.0 μM + paclitaxel 1 nM
[4] = Homo sapiens, HeLa S3, 72 h, read-out: Cell growth inhibitory effect by sole administration of the compound of Example (%)

| IC50 (Aurora A) [nM] | IC50 (Aurora B) [nM] | IC50 [2] [nM] | SMILES | Cell growth inhibitory effect by combined administration of paclitaxel and the compound of Example (%) [1, 3] [%] | inhibition at 1 µM [1, 4] [%] | Cell growth inhibitory effect by combined administration of paclitaxel and the compound of Example (%) ([1]; HeLa S3, compound 0.1 μM + paclitaxel 1 nM) | inhibition at 0.1 µM ([1]; Homo sapiens, HeLa S3, 72 h, HeLa S3, compound 0.1 μM alone, read-out: Cell growth inhibitory effect by sole administration of the compound of Example (%)) [%] | Cell growth inhibitory effect by sole administration of paclitaxel (1 nM) (%) ([1]; HeLa S3, paclitaxel 1 nM alone) | inhibition at 0.001 µM ([1]; Homo sapiens, HeLa S3, 72 h, HeLa S3, paclitaxel 1 nM alone, read-out: Cell growth inhibitory effect by sole administration of paclitaxel (1 nM) (%)) [%] |
| --- | --- | --- | --- | --- | --- | --- | --- | --- | --- |
| 9.8 | 690 |  | Cc1cc(Nc2ccnc(CN3C[C@@H]4C[C@H]3CN4C(=O)c3cccc(Cl)c3F)n2)n[nH]1 [Example 9, 2-(((1S,4S)-5-(3-chloro-2-fluorobenzoyl)-2,5-diazabicyclo[2.2.1]hept-2-yl)methyl)-N-(5-methyl-1H-pyrazol-3-yl)pyrimidine-4-amine] | 79.5 | 12.4 |  |  |  |  |
| 1.3 | 260 | 670 | CN(C)C(=O)c1cc(CN2C[C@@H]3C[C@H]2CN3C(=O)c2cccc(Cl)c2F)nc(Nc2nccs2)c1 [Example 21, 2-(((1S,4S)-5-(3-chloro-2-fluorobenzoyl)-2,5-diazabicyclo[2.2.1]hept-2-yl)methyl)-N,N-dimethyl-6-(1,3-thiazol-2-ylamino)isonicotinamide] |  |  | 81.3 | 14.9 |  |  |
| 7.1 | 2100 | 4600 | O=C(c1cccc(Cl)c1Cl)N1C[C@@H]2C[C@H]1CN2Cc1cncc(Nc2cc[nH]n2)n1 [Example 10, 6-(((1S,4S)-5-(2,3-dichlorobenzoyl)-2,5-diazabicyclo[2.2.1]hept-2-yl)methyl)-N-1H-pyrazol-3-ylpyrazine-2-amine trifluoroacetate] | 84.8 | 8.9 |  |  |  |  |
| 1.1 | 190 |  | CN(C)C(=O)c1cc(CN2C[C@@H]3C[C@H]2CN3C(=O)c2cccc(C(F)(F)F)c2C#N)nc(Nc2nccs2)c1 [Example 24, 2-(((1S,4S)-5-(2-cyano-3-(trifluoromethyl)benzoyl)-2,5-diazabicyclo[2.2.1]hept-2-yl)methyl)-N,N-dimethyl-6-(1,3-thiazol-2-ylamino)isonicotinamide] |  |  |  |  |  |  |
| 5.7 | 300 |  | Cc1cc(Nc2cc(C)[nH]n2)nc(CN2C[C@@H]3C[C@H]2CN3C(=O)c2cccc(Cl)c2F)n1 [Example 7] |  |  |  |  |  |  |
| 1.4 | 590 |  | CN(C)C(=O)c1cc(CN2C[C@@H]3C[C@H]2CN3C(=O)c2cccc(C(F)(F)F)c2F)nc(Nc2nccs2)c1 [Example 22, 2-(((1S,4S)-5-(2-fluoro-3-(trifluoromethyl)benzoyl)-2,5-diazabicyclo[2.2.1]hept-2-yl)methyl)-N,N-dimethyl-6-(1,3-thiazol-2-ylamino)isonicotinamide trifluoroacetate] |  |  |  |  |  |  |
| 1.4 | 330 |  | CN(C)C(=O)c1cc(CN2C[C@@H]3C[C@H]2CN3C(=O)c2cccc(Cl)c2C#N)nc(Nc2nccs2)c1 [Example 23, 2-(((1S,4S)-5-(3-chloro-2-cyanobenzoyl)-2,5-diazabicyclo[2.2.1]hept-2-yl)methyl)-N,N-dimethyl-6-(1,3-thiazol-2-ylamino)isonicotinamide trifluoroacetate] |  |  |  |  |  |  |
|  |  |  | CC(=O)O[C@H]1C(=O)[C@@]2(C)[C@H]([C@H](OC(=O)c3ccccc3)[C@]3(O)C[C@H](OC(=O)[C@H](O)[C@@H](NC(=O)c4ccccc4)c4ccccc4)C(C)=C1C3(C)C)[C@]1(OC(C)=O)CO[C@@H]1C[C@@H]2O [paclitaxel, reference compound] |  |  |  |  | 47.1% and 51.4% | 47.2 |
| 6.1 | 2800 | 9750 | O=C(c1cccc(C(F)(F)F)c1F)N1C[C@@H]2C[C@H]1CN2Cc1nccc(Nc2cc[nH]n2)n1 [Example 6, 2-(((1S,4S)-5-(2-fluoro-3-(trifluoromethyl)benzoyl)-2,5-diazabicyclo[2.2.1]hept-2-yl)methyl)-N-1H-pyrazol-3-ylpyrimidine-4-amine] | 71.7 | 1.7 |  |  |  |  |
| 4.8 | 2300 |  | O=C(c1cccc(C(F)(F)F)c1Cl)N1C[C@H]2C[C@@H]1CN2Cc1cncc(Nc2cc[nH]n2)n1 [Example 12] |  |  |  |  |  |  |
| 3 | 640 | 5080 | Cc1cc(Nc2cc[nH]n2)nc(CN2C[C@@H]3C[C@H]2CN3C(=O)c2cccc(Cl)c2F)n1 [Example 1, 2-(((1S,4S)-5-(3-chloro-2-fluorobenzoyl)-2,5-diazabicyclo[2.2.1]hept-2-yl)methyl)-6-methyl-N-1H-pyrazol-3-ylpyrimidine-4-amine] | 83.0 | 14.3 |  |  |  |  |
